Where two headings read alike, the source gives them in different places.
Columns and labels:
[1] = tested on: Pf3D7-pfs16-CBG99 gametocytes, immature (stage II/III) and mature (stage V); assay: Gametocyte killing assay (luciferase); type: cell-based; conditions: Plasmodium falciparum, 48 h
Method: Gametocytogenesis was induced on a tightly synchronised (>97% rings) asexual parasite culture (Pf3D7-pfs16-CBG99 (kind gift from Pietro Alano), 0.5% parasitemia and 6% hematocrit) with a combination of nutrient starvation and a decrease in hematocrit, as previously described. For immature gametocytes (>90% stage II/III), cultures were exposed to 50 mM N-acetyl glucosamine (NAG) on days 1–4 to eliminate residual asexual parasites and harvested at days 5–6. For mature (>95% stage V) gametocytes, NAG treatment occurred from days 3–7 and harvest at day 13. Stage II/III and V gametocyte cultures (2 % gametocytaemia 1.5 % haematocrit, 150 μL/well) were exposed to compounds and incubated at 37°C for 48 h under hypoxic conditions, after which luciferase activity was determined with a non-lysing D-luciferin substrate (1mM in 0.1M citrate buffer, pH 5.5, 100 μL) and bioluminescence was detected with a 2 s integration time with a GloMax-Multi Detection System with Instinct software.

PfTyrRS [2] = target: T1, PfTyrRS (Plasmodium falciparum, UniProt Q8IAR7); assay: ATP consumption by PfTyrRS (Kinase Glo); type: biochemical; conditions: PfTyrRS 25 nM, ATP 10 μM, tyrosine 200 μM, cognate tRNA^Tyr 4.8 μM, 37°C 1 h; read-out: Inhibition of PfTyrRS (Kinase Glo) IC50
Method: Consumption of ATP was measured using a luciferase-based assay as per the manufacturer’s instructions (Kinase-Glo Luminescent Kinase Assay, Promega).

[3] = tested on: P. falciparum (3D7, ring stage) cultures; assay: P. falciparum 3D7 72-h growth inhibition, lactate dehydrogenase (PfLDH) assay; type: cell-based; conditions: Plasmodium falciparum, 72 h exposure
Method: Routine analyses of antimalarial activity against P. falciparum 3D7 was tested by TCGLS (Kolkata, India) using the lactate dehydrogenase (PfLDH) growth inhibition assay as previously described. […] P. falciparum strain (3D7) was obtained from BEI Resources.

HepG2 cells = assay: HepG2 72-h viability, CellTiter-Glo; type: cell-based; conditions: Homo sapiens, 72 h exposure
Method: The HepG2 (Human hepatocyte carcinoma) cell line was procured from ATCC (American Type Culture Collection, Manassas, USA; HB-8065) and viability assessed using CellTiter-Glo luminescent cell viability assay reagents (Promega). For the assay, 2,000 cells/well were plated in 384-well plates 24 h prior to the experiment and incubated at 37°C in a CO2 incubator. The medium was removed; and cells were treated with fresh medium containing either vehicle (0.5% DMSO) or serially diluted compounds or doxorubicin (1.3 nM to 25 μM) in a final volume of 50 μL/well and further incubated for 72 h at 37°C in a CO2 incubator. […] Following incubation, 25 μL of medium was discarded and 25 μl of CellTiter-Glo reagent was added to each well and the plate was kept on a plate shaker for 15 min at 25°C with shaking at 300 rpm. Luminescence signals were measured in a PHERAstar FSX reader (BMG LABTECH).

PfTyrRS [4] = target: T1, PfTyrRS; assay: Differential scanning fluorimetry (DSF) of PfTyrRS; type: binding; conditions: for ΔTm at 50 µM: 50 μM sulfamate, tyrosine, PftRNA^Tyr, 37°C 2 h, read-out: PfTyrRS binding (DSF) Delta Tm; for ΔTm at 50 µM / PfTyrRS Tm: ATP; for Kd: estimated from DSF with an irreversible thermal unfolding model, read-out: PfTyrRS binding (DSF) apparent KD; for PfTyrRS Tm: with sulfamate, tyrosine and tRNA, apo 49.9 ± 0.6
Method: The effect on ML471 and analogues on the thermal stability of TyrRS enzymes was assayed as previously described. […] SYPRO Orange (Sigma-Aldrich; 5,000X concentrate in DMSO) was added to the reaction mixture at a final concentration of 5X. 25 μL of the sample was added into each well of a 96-well qPCR plate (Applied Biosystems). The plate was sealed and analysed using StepOnePlus Real-Time PCR system (Applied Biosystems). The samples were heated from 20°C to 90°C with a 1% continuous gradient. The thermal unfolding curve was plotted as the first derivative curve of the raw fluorescence values. The melting temperature (Tm), defined as the peak of the first derivative curve, was used to assess the thermal stability of protein-ligand complexes.

[5] = tested on: P. falciparum (strain 3D7A); design: method as in ref [1] Sanz et al., PloS one 2012; conditions: 10 x IC50; ref [1] Sanz et al., PloS one 2012; cited from earlier work
[6] = tested on: P. falciparum Brazilian field isolates; assay: Ex vivo drug susceptibility of Brazilian field isolates (P. falciparum); type: cell-based; conditions: Plasmodium falciparum
Method: (§1) Compounds were assayed on ten P. vivax isolates and seven P. falciparum Brazilian isolates collected from mono-infected patients, who had signed a written informed consent form to participate in the study, using previously described methods. The initial parasitemia ranged from 2,100–8,000 parasites/μL for P. vivax and 3,500–9,000 parasites/μL for P. falciparum isolates. Artesunate and chloroquine were assayed in parallel as standard compounds. The analyses included only the isolates that were incubated for ≥ 40 h with the compounds.

[7] = tested on: P. vivax Brazilian field isolates; assay: Ex vivo drug susceptibility of Brazilian field isolates (P. vivax); type: cell-based; conditions: Plasmodium vivax
Method: as §1

T1 sequence (Q8IAR7 entry or part of it): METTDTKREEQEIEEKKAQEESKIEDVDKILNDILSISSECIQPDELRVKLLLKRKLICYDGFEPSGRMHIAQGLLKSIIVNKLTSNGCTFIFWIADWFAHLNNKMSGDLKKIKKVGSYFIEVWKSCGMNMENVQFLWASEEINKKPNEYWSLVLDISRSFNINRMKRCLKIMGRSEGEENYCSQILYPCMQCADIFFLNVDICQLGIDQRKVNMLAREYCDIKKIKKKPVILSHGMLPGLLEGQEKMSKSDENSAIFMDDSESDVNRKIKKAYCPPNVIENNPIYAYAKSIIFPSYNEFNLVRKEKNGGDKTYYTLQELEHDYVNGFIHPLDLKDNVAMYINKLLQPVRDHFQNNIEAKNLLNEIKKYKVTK

Structure (SMILES)	IC50 (PfTyrRS [2]) [nM]	IC50 [3] [nM]	IC50 (HepG2 cells) [nM]	ΔTm at 50 µM (PfTyrRS [4]) [°C]	Kd (PfTyrRS [4]) [nM]	PfTyrRS Tm (PfTyrRS [4]) [°C]	other results
CN(C)c1ccc2nc3ccc(=[N+](C)C)cc-3sc2c1 [Methylene blue, reference compound]	–	–	–	–	–	–	IC50 ([1]; read-out: Early stage gametocytes IC50): 62 ± 11 nM; IC50 ([1]; read-out: Mature stage gametocytes IC50): 353 ± 63 nM
CC(=O)c1nn([C@@H]2O[C@H](COS(N)(=O)=O)[C@@H](O)[C@H]2O)c2ncnc(N)c12 [ML111]	34000 ± 14000	4.3 ± 0.7	> 50000	15.1 ± 0.2	0.7	65.0 ± 0.5	–
C[C@@H]1CC[C@H]2[C@@H](C)C(=O)O[C@@H]3O[C@@]4(C)CC[C@@H]1[C@]32OO4 [Artemisinin]	–	–	–	–	–	–	Lag phase [5]: 0 h; Log PRR [5]: > 4.8; PCT99.9% [5]: < 24 h
Nc1ncnc2c1c(C1CC1)nn2[C@@H]1O[C@H](COS(N)(=O)=O)[C@@H](O)[C@H]1O [ML864]	8500 ± 4500	2.5 ± 0.6	21300	17 ± 0.1	0.3	66.9 ± 0.5	–
C[C@H]1[C@H](OC(=O)CCC(=O)O)O[C@@H]2O[C@@]3(C)CC[C@H]4[C@H](C)CC[C@@H]1[C@@]24OO3 [Artesunate]	–	–	–	–	–	–	EC50 ([6]; range over n = 7 isolates, read-out: EC50 range, P. falciparum Brazilian field isolates): 0.8 to 3.1 nM; EC50 ([6]; read-out: Median EC50, P. falciparum Brazilian field isolates): 2.2 nM; EC50 ([7]; range over n = 10 isolates, read-out: EC50 range, P. vivax Brazilian field isolates): 0.8 to 3.5 nM; EC50 ([7]; read-out: Median EC50, P. vivax Brazilian field isolates): 1.7 nM

From paper PMC11671014 (PLOS Pathogens, 2024)
